For 19 molecules, IC50 results are on record in patent publication US20130344026A1, “Dimeric Smac Mimetics” (priority 2009, published 2013).

Like-named read-outs stand apart in the source and are kept apart here.

This assay concerns PANC-1 cells. Nature of the assay: cell viability assay in PANC-1 cells (compound alone, + 100 ng/ml TNFa, + 300 ng/ml TRAIL). The format is cell-based.
Where [1] appears, read: Homo sapiens, PANC-1, compound alone, Tables 6-10, read-out: IC50 (μM) in cell viability assay in PANC-1 cells: Compound alone.
Setting [2] is: with 100 ng/ml TNFa, Tables 6-10, read-out: IC50 (μM) in cell viability assay in PANC-1 cells: Compound + 100 ng/ml TNFa.
The mark [3] stands for this setting: with 300 ng/ml TRAIL, Tables 6-10, read-out: IC50 (μM) in cell viability assay in PANC-1 cells: Compound + 300 ng/ml TRAIL.
Where [4] appears, read: Homo sapiens, PANC-1 cells, compound alone, read-out: IC50 (uM) in cell viability assay in PANC-1 cells, Cmpnd alone.
[5] abbreviates: PANC-1 cells, + 100 ng/ml TNFa, read-out: IC50 (uM) in cell viability assay in PANC-1 cells, Cmpnd + 100 ng/ml TNFa.
Setting [6] is: PANC-1 cells, + 300 ng/ml TRAIL, read-out: IC50 (uM) in cell viability assay in PANC-1 cells, Cmpnd + 300 ng/ml TRAIL.
Where [7] appears, read: Homo sapiens, PANC-1, compound alone, Tables 15-18, read-out: IC50 (uM) in cell viability assay in PANC-1 cells: Cmpnd alone.
The mark [8] stands for this setting: with 100 ng/ml TNFa, Tables 15-18, read-out: IC50 (uM) in cell viability assay in PANC-1 cells: Cmpnd + 100 ng/ml TNFa.
Setting [9] is: with 300 ng/ml TRAIL, Tables 15-18, read-out: IC50 (uM) in cell viability assay in PANC-1 cells: Cmpnd + 300 ng/ml TRAIL.
Where [10] appears, read: compound alone, Tables 6-10, read-out: IC50 (μM) in cell viability assay in PANC-1 cells: Compound alone.

Turning to `CN[C@@H](C)C(=O)N[C@H](C(=O)N1CCC[C@H]1C(=O)N[C@H](C)c1ccccc1)[C@H](C)n1cc(CCCc2cn([C@@H](C)[C@H](NC(=O)[C@H](C)NC)C(=O)N3CCC[C@H]3C(=O)N[C@H](C)c3ccccc3)nn2)nn1` [Compound 115], the IC50 under setting [1] was > 1 µM, the IC50 under setting [2] was determined as 0.057 µM and the IC50 under setting [3] came out at 0.063 µM.
Take `CN[C@@H](C)C(=O)N[C@H](C(=O)N1C[C@@H](N(C)C(=O)c2cc(C(=O)N(C)[C@H]3C[C@@H](C(=O)N[C@H](C)c4ccccc4)N(C(=O)[C@@H](NC(=O)[C@H](C)NC)C(C)(C)C)C3)[nH]n2)C[C@H]1C(=O)N[C@H](C)c1ccccc1)C(C)(C)C` [Compound P3-109]: the IC50 by setting is: under setting [4], > 1 µM; under setting [5], 0.028 µM; under setting [6], 0.049 µM.
Regarding `CN[C@@H](C)C(=O)N[C@@H](CC(=O)NCC=CC=CCNC(=O)C[C@H](NC(=O)[C@H](C)NC)C(=O)N1CCC[C@H]1C(=O)N[C@@H]1CCCc2ccccc21)C(=O)N1CCC[C@H]1C(=O)N[C@@H]1CCCc2ccccc21` [Compound P2-42], the IC50 by setting is: under setting [7], > 1 µM; under setting [8], 0.091 µM; under setting [9], 0.148 µM.
As for `CN[C@@H](C)C(=O)N[C@H](C(=O)N1C[C@@H](NC(=O)c2cc(C(=O)N[C@H]3C[C@@H](C(=O)N[C@H](C)c4ccc(Cl)cc4)N(C(=O)[C@@H](NC(=O)[C@H](C)NC)C(C)(C)C)C3)[nH]n2)C[C@H]1C(=O)N[C@H](C)c1ccc(Cl)cc1)C(C)(C)C` [Compound P3-108], the IC50 under setting [4] was > 1 µM, the IC50 under setting [5] is 0.012 µM and the IC50 under setting [6] was found to be 0.036 µM.
On to `CN[C@@H](C)C(=O)N[C@H](C(=O)N1C[C@@H](Oc2cccc(C#CC#Cc3cccc(O[C@H]4C[C@@H](C(=O)N[C@@H]5CCCc6ccccc65)N(C(=O)[C@@H](NC(=O)[C@H](C)NC)C(C)(C)C)C4)c3)c2)C[C@H]1C(=O)N[C@@H]1CCCc2ccccc21)C(C)(C)C` [Compound P3-103], for which the IC50 was > 1 µM under setting [4], 0.0316 µM under setting [5] and 0.037 µM under setting [6].
In the case of `CN[C@@H](C)C(=O)N[C@H](C(=O)N1CCC[C@H]1C(=O)N[C@H]1c2ccccc2C[C@@H]1OCCCCCCO[C@H]1Cc2ccccc2[C@@H]1NC(=O)[C@@H]1CCCN1C(=O)[C@@H](NC(=O)[C@H](C)NC)C(C)(C)C)C(C)(C)C` [Compound 122], the IC50 by setting is: under setting [1], > 1 µM; under setting [2], 0.0015 µM; under setting [3], 0.0014 µM.
For `CN[C@@H](C)C(=O)N[C@H](C(=O)N1C[C@@H](NC(=O)c2ccc(C(=O)N[C@H]3C[C@@H](C(=O)N[C@@H]4CCCc5ccccc54)N(C(=O)[C@@H](NC(=O)[C@H](C)NC)C(C)(C)C)C3)nc2)C[C@H]1C(=O)N[C@@H]1CCCc2ccccc21)C(C)(C)C` [Compound P3-94], the IC50 runs as follows: under setting [4], > 1 µM; under setting [5], 0.003 µM; under setting [6], 0.006 µM.
Consider `CN[C@@H](C)C(=O)N[C@H](C(=O)N1C[C@@H](NC(=O)c2cccc(C(=O)N[C@H]3C[C@@H](C(=O)N[C@H](C)c4ccccn4)N(C(=O)[C@@H](NC(=O)[C@H](C)NC)C(C)(C)C)C3)c2)C[C@H]1C(=O)N[C@H](C)c1ccccn1)C(C)(C)C` [Compound 26], for which the IC50 was > 1 µM under setting [10], > 1 µM under setting [2] and > 1 µM under setting [3].
As to `CN[C@@H](C)C(=O)N[C@H](C(=O)N1C[C@@H](NC(=O)c2cccc(C(=O)N[C@H]3C[C@@H](C(=O)NC4CCSc5ccccc54)N(C(=O)[C@@H](NC(=O)[C@H](C)NC)C(C)(C)C)C3)c2)C[C@H]1C(=O)NC1CCSc2ccccc21)C(C)(C)C` (single isomer, unassigned) [Compound 67], the IC50 under setting [1] was > 1 µM, the IC50 under setting [2] came out at 0.191 µM and the IC50 under setting [3] was 0.22 µM.
For `CN[C@@H](C)C(=O)NC(C(=O)N[C@@H](CCNC(=O)CCc1cn([C@H]2C[C@@H](C(=O)N[C@@H]3CCCc4ccccc43)N(C(=O)[C@@H](NC(=O)[C@H](C)NC)C(C)(C)C)C2)nn1)C(=O)N[C@H](C)c1ccccc1)C(C)(C)C` (stereo partly shown) [Compound 197] the same measures were > 1 µM, 0.128 µM and 0.18 µM.
For `CN[C@@H](C)C(=O)N[C@H](C(=O)N1CCC[C@H]1Cn1ccnc1Cc1ccccc1)[C@@H](C)OCC#CC#CCO[C@H](C)[C@H](NC(=O)[C@H](C)NC)C(=O)N1CCC[C@H]1Cn1ccnc1Cc1ccccc1` [Compound 74] the same measures were > 1 µM, > 1 µM and > 1 µM.
On to `CN[C@@H](C)C(=O)Nc1nc(-c2ccccc2)c(C(=O)NCCc2cn([C@H]3C[C@@H](C(=O)N[C@@H]4CCCc5ccccc54)N(C(=O)[C@@H](NC(=O)[C@H](C)NC)C(C)(C)C)C3)nn2)s1` [Compound 196], for which the IC50 under setting [1] was > 1 µM, the IC50 under setting [2] was determined as 0.577 µM and the IC50 under setting [3] came to 0.622 µM.
Take `CN[C@@H](C)C(=O)N[C@H](C(=O)N1CCC[C@H]1C(=O)N[C@H]1c2ccccc2C[C@H]1OCCCCCCO[C@@H]1Cc2ccccc2[C@@H]1NC(=O)[C@@H]1CCCN1C(=O)[C@@H](NC(=O)[C@H](C)NC)C(C)(C)C)C(C)(C)C` [Compound 120]: the IC50 under setting [1] was > 1 µM.
Take `CN[C@@H](C)C(=O)N[C@H](C(=O)N1CCC[C@H]1C(=O)N[C@H](C)c1ccccc1)[C@H](C)NC(=O)c1ccc(C(=O)N[C@@H](C)[C@H](NC(=O)[C@H](C)NC)C(=O)N2CCC[C@H]2C(=O)N[C@H](C)c2ccccc2)cc1` [Compound 114]: the IC50 is, setting by setting: under setting [1], > 1 µM; under setting [2], 0.199 µM; under setting [3], 0.184 µM.
For `CN[C@@H](C)C(=O)N[C@H]1CCN(C(=O)c2ccc(C(=O)N[C@H]3C[C@@H](C(=O)N[C@@H]4CCCc5ccccc54)N(C(=O)[C@@H](NC(=O)[C@H](C)NC)C(C)(C)C)C3)cc2)C1` [Compound 187] the same measures were > 1 µM, 0.62 µM and 0.6 µM.
Turning to `CN[C@@H](C)C(=O)N[C@H](C(=O)N1C[C@@H](NC(=O)c2cccc(C(=O)N[C@H]3C[C@@H](C(=O)N[C@@H]4CCCc5cc(O)ccc54)N(C(=O)[C@@H](NC(=O)[C@H](C)NC)C(C)(C)C)C3)c2)C[C@H]1C(=O)N[C@@H]1CCCc2cc(O)ccc21)C(C)(C)C` (single isomer, unassigned) [Compound 61], the IC50 was > 1 µM under setting [1], 0.324 µM under setting [2] and 0.439 µM under setting [3].
For `CN[C@@H](C)C(=O)N[C@@H](CC#CC#CC[C@H](NC(=O)[C@H](C)NC)C(=O)N1CCC[C@H]1CNC(=O)c1ccccn1)C(=O)N1CCC[C@H]1CNC(=O)c1ccccn1` [Compound 15], in that order: > 1 µM, 0.209 µM and 0.235 µM.
For the molecule `CCCC[C@@H](C)NC(=O)c1cc(C(=O)N[C@H]2C[C@@H](C(=O)N[C@@H]3CCCc4ccccc43)N(C(=O)[C@@H](NC(=O)[C@H](C)NC)C(C)(C)C)C2)cc(C(=O)N[C@H]2C[C@@H](C(=O)N[C@@H]3CCCc4ccccc43)N(C(=O)[C@@H](NC(=O)[C@H](C)NC)C(C)(C)C)C2)c1` [Compound 129], the IC50 under setting [10] is > 1 µM, the IC50 under setting [2] was determined as 0.006 µM and the IC50 under setting [3] was determined as 0.004 µM.
`CN[C@@H](C)C(=O)N[C@H](C(=O)N1CCC[C@H]1CN(CC#CC#CCN(CCc1ccccc1)C[C@@H]1CCCN1C(=O)[C@@H](NC(=O)[C@H](C)NC)C(C)(C)C)CCc1ccccc1)C(C)(C)C` [Compound P4-20]: the IC50 under setting [7] was > 1 µM, the IC50 under setting [8] stood at 0.061 µM and the IC50 under setting [9] worked out at 0.041 µM.
